Source: US7074596B2, “Synthesis and use of anti-reverse mRNA cap analogues” (Board of Supervisors of Louisiana State University And …, priority 2002, dated 2006)

What was measured:
[1] = biological target: T1, SP6 polymerase (Enterobacteria phage SP6, UniProt P06221); assay: Analysis of cap orientation in in vitro-synthesized RNA transcripts by RNase T2 + TAP digestion and anion exchange HPLC; assay type: biochemical, bacteriophage SP6; settings: for Product observed RNase T2 + TAP: pGp* (normal orientation of the cap) / Product observed RNase T2 + TAP: 7-methylated pGp* product (reverse orientation of the cap): short RNA (43 bases) from Ncol-digested pSP-luc+, [α-32P]ATP, share of 5′ end labeled digestion product; for Orientation of incorporation into RNA (in words): RNase T2 and TAP digestion, HPLC, FIG. 2
T1 construct: purchased Promega
T1 sequence (P06221 1-874): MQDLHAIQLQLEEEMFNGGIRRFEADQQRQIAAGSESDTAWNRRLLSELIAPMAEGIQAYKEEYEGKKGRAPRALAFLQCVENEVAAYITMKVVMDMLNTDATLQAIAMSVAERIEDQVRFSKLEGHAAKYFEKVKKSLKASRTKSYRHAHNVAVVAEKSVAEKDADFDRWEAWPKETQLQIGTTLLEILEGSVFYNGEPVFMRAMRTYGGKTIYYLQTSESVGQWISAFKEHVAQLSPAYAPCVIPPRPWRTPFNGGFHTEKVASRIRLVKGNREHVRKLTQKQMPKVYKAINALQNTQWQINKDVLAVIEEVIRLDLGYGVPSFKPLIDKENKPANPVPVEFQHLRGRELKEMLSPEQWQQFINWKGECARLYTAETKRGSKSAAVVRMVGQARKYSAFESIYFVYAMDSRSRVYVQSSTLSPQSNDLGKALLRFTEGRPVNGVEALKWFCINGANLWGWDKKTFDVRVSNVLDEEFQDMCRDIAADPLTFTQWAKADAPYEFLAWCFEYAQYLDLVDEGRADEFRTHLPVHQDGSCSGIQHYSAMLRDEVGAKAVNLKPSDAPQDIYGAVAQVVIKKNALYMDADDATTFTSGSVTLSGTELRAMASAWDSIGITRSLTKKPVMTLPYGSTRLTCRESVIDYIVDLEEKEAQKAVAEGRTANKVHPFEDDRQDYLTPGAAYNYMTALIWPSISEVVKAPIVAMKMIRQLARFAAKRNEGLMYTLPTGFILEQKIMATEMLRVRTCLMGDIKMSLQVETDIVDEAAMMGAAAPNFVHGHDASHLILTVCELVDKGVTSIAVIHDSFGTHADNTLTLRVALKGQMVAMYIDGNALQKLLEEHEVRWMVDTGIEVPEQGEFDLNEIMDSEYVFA
Procedure: Mono- and dinucleotides obtained by enzymatic digestion of in vitro-synthesized RNAs were analyzed by HPLC using a Waters 625 instrument with a 996 PDA detector on a 4.5×250 mm Partisil 10SAX/25 column (Whatman). The program for elution of nucleotides comprised water for the first 5 min; a linear gradient of […]; a linear gradient of 87.5 to 500 mM of KH2PO4 over 30 min; and isocratic elution at 500 mM KH2PO4 for 21 min—all at a flow rate of 1 mL/min.
Two lengths of RNA, either uncapped or capped with one of the cap analogues, were synthesized by in vitro transcription. The DNA template used for both lengths of RNA was pSP−luc+ (Promega), which contains an SP6 bacteriophage promoter and a sequence encoding luciferase. To generate the short RNAs (43 bases exclusive of the cap), the plasmid was digested with Ncol. To generate the long RNAs (1706 bases, containing the entire luciferase coding region), the plasmid was digested with EcoRl. A typical 20 μL in vitro transcription reaction contained 40 mM Tris-HCl, pH 7.9, 6 mM MgCl2, 2 mM spermidine, 10 mM DTT, 2 μg BSA, 20 units of RNasin (Promega), 0.5 mM ATP, 0.5 mM CTP, 0.5 mM UTP, 0.1 mM GTP, 1 mM cap analogue (GpppG, m7GpppG, m^73′dGpppG, or m2^7,O3′GpppG), 0.2–1.0 μg DNA, and 20 units of SP6 polymerase (Promega). Reactions to synthesize the short RNAs also contained 28 μCi of [α-^32P]ATP (ICN), and those to synthesize the long RNAs contained 0.8 μCi of [α-^32P]CTP (ICN). Reaction mixtures were incubated for 60 min at 37° C., extracted with phenol and chloroform, and the solution was made 2 M in sodium acetate. The nucleic acids were then precipitated with 3 volumes of ethanol on dry ice for 5 min, and the mixture was centrifuged at 14,000 rpm for 30 min. The resulting pellet was dissolved in water, and the solution was made 0.2 M in sodium acetate. The nucleic acid was precipitated with 2.5 volumes of ethanol at 4° C. for 30 min, and the mixture was centrifuged at 14,000 rpm for 30 min. The pellet was allowed to air-dry and then dissolved in diethylpyrocarbonate-treated water.
The short RNAs were digested with 67 U RNase T2 (Life Technologies) in 15 μL of 0.14 M sodium acetate, pH 4.6, at 37° C. for 60 min. In some cases, the RNAs were subjected to a two-step digestion instead. The first digestion was with 10 U TAP (tobacco acid pyrophosphatase) (Epicentre Technologies) in 5 μL of 50 mM sodium acetate, pH 6.0, 1 mM EDTA, 0.1% β-mercaptoethanol, and 0.01% Triton X-100 at 37° C. for 60 min. The digestion was continued for 60 min at 37° C. with 67 U RNase T2 in a final volume of 16 μL of 0.12 M sodium acetate, pH 4.6. Samples were analyzed without further treatment by anion exchange HPLC as described above.
The structure of the ARCAs was designed to prevent incorporation into RNA in the reverse orientation. […] To obtain a higher proportion of radioactivity in the cap versus the internal positions, a shorter DNA template was produced by cleaving pSP−luc+ with Ncol instead of EcoRl. This digestion was expected to yield an RNA product of 43 bases (plus the cap).
RNase T2 digests RNA with no base specificity. Thus, it was expected to generate primarily 3′-NMPs from this RNA. Those nucleotide residues that were located 5′ to an A residue would acquire a ^32P-labeled 3′-phosphate by nearest-neighbor transfer. The pyrophosphate bonds in the cap, however, are not susceptible to RNase T2. Since the first nucleotide residue after the cap in the synthetic RNA is an A, the α-phosphate of [α-^32P]ATP would be transferred to the cap following RNase T2 digestion.

[2] = biological target: T2, elF4E (Oryctolagus cuniculus, UniProt P29338); assay: Competitive inhibition of cell-free translation of globin mRNA in the RRL system; assay type: biochemical, rabbit; settings: FIG. 3
T2 construct: A micrococcal nuclease-treated RRL (rabbit reticulocyte lysate) system was used for in vitro translation; from tissue; host or cells: rabbit reticulocyte lysate, micrococcal nuclease-treated
T2 sequence (P29338 whole entry): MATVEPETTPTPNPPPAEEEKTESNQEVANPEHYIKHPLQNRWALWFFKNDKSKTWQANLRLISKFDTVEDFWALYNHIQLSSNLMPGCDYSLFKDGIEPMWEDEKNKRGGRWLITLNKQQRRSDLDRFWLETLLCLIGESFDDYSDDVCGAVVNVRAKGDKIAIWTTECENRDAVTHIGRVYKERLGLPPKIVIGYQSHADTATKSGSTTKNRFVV
Procedure: The ability of cap analogues to inhibit cell-free translation in the RRL system programmed with globin mRNA was measured as described in Cai et al. (1999). Data were fit by least squares minimization to a theoretical rate equation.
We separately tested GpppG, m^7GpppG, and the two ARCAs for their ability to compete with natural globin mRNA for recognition by the translational machinery, and thereby to inhibit translation in an RRL system. […] Natural rabbit globin mRNA was translated at 5 μg/mL in the RRL system, and globin synthesis was detected by incorporation of [^3H]Leu into protein.

[3] = tested on: RRL (rabbit reticulocyte lysate) system; assay: Translation of capped luciferase mRNAs in the RRL system (luciferase activity); assay type: biochemical; settings: translated 60 min in RRL, slope of luciferase activity versus mRNA concentration, FIG. 4
Source text: Two lengths of RNA, either uncapped or capped with one of the cap analogues, were synthesized by in vitro transcription. The DNA template used for both lengths of RNA was pSP−luc+ (Promega), which contains an SP6 bacteriophage promoter and a sequence encoding luciferase. To generate the short RNAs (43 bases exclusive of the cap), the plasmid was digested with Ncol. To generate the long RNAs (1706 bases, containing the entire luciferase coding region), the plasmid was digested with EcoRl. […]
A micrococcal nuclease-treated RRL (rabbit reticulocyte lysate) system was used for in vitro translation as described in A. Cai et al., “Quantitative assessment of mRNA cap analogs as inhibitors of in vitro translation,” Biochemistry, vol.38, pp. 8538–8547 (1999). In some cases, the mRNA used in this system was natural rabbit globin mRNA, and protein synthesis was measured by incorporation of [^3H]Leu into a trichloroacetic acid-precipitable form. […]
FIG. 4 depicts the translational activity of the ARCA-capped mRNAs. […] The RNAs were translated for 60 min in the RRL system, and luciferase activity was measured in triplicate by luminometry (RLU, relative light units). […]

Row | Structure (SMILES) | Product observed RNase T2 + TAP: pGp* (normal orientation of the cap) [1] | Inhibition of translation (in words) ([2]; natural rabbit globin mRNA in RRL system) | Translational efficiency of capped luciferase mRNA (in words) [3] | Orientation of incorporation into RNA (in words) [1] | Product observed RNase T2 + TAP: 7-methylated pGp* product (reverse orientation of the cap) [1] | Extent of reverse capping ([1]; experiments of FIG. 2 and Table 3) | Ki ([2]; natural rabbit globin mRNA 5 μg/mL, [3H]Leu incorporation, least-squares fit of translation data, read-out: Kl, dissociation constant for the cap analogue•elF4E complex)
1 | Nc1nc2c(ncn2[C@@H]2O[C@H](COP(=O)(O)OP(=O)(O)OP(=O)(O)OC[C@H]3O[C@@H](n4cnc5c(=O)[nH]c(N)nc54)[C@H](O)[C@@H]3O)[C@@H](O)[C@H]2O)c(=O)[nH]1 [GpppG, reference compound] | 100% | did not act as an inhibitor | – | – | – | – | –
2 | CO[C@H]1[C@@H](O)[C@H](n2c[n+](C)c3c(=O)[nH]c(N)nc32)O[C@@H]1COP(=O)(O)OP(=O)(O)OP(=O)(O)OC[C@H]1O[C@@H](n2cnc3c(=O)[nH]c(N)nc32)[C@H](O)[C@@H]1O [m2^7,O3′GpppG, P^1-3′-O, 7-Dimethylguanosine-5′P^3-guanosine-5′triphosphate] | 100% | – | more efficient in translation than m^7GpppG-capped mRNA | incorporated in only one orientation | 0% | – | –
3 | C[n+]1cn([C@@H]2O[C@H](COP(=O)(O)OP(=O)(O)OP(=O)(O)OC[C@H]3O[C@@H](n4cnc5c(=O)[nH]c(N)nc54)[C@H](O)[C@@H]3O)C[C@H]2O)c2nc(N)[nH]c(=O)c21 [m^73′dGpppG, P^1-3′-Deoxy-7-methylguanosine-5′ P^3-guanosine-5′triphosphate] | 100% | – | more efficient in translation than m^7GpppG-capped mRNA | incorporated in only a single orientation | 0% | – | –
4 | Cn1c[n+](C2OC(COP(=O)(O)OP(=O)(O)OP(=O)(O)OCC3OC(n4cnc5c(=O)[nH]c(N)nc54)C(O)C3O)C(O)C2O)c2nc(N)nc([O-])c21 (centres unmarked) [m^7GpppG, m^7G(5′)ppp(5′)G, reference compound] | 67% | – | – | – | 33% | approximately 33% | 27.8 ± 12.6 µM
